Where a SMILES comes first, the peptide text is derived from it.

Ten molecules from patent publication US5798336A, “Antimicrobial peptides” (priority 1995, dated 1998) can be followed below.

Assay [1] deals with S. aureus strain 8325-4. To be noted: for % Survival of S. aureus: Table 3, all peptides at 5×10^-4 M.
Another assay relates to P. aeruginosa ATCC 27853. As to conditions: Table 7A; RP-HPLC-purified peptides 500 μg/ml.
Assay [2] has as its system P. aeruginosa clinical isolates. It is filed as cell-based, Pseudomonas aeruginosa. To be noted: four independent clinical isolates. The text has this: P. aeruginosa ATCC 27853 (American Type Culture Collection, Rockville, Md.) is the strain used for testing antimicrobial activity against P. aeruginosa unless otherwise noted. It is a standardized strain for antibiotic-susceptibility testing of pseudomonads (see, e.g., Code of Federal Regulations, Title 21, Part 460, 1987). […] Agents effective against P. aeruginosa are needed in the art because multiple antibiotic resistance is quite common among clinical strains, and therefore resultant infections are often difficult to treat.
^1 3-5 × 10^7 CFU/ml of the designated strains were exposed
to 500 μg/ml of HPLCpurified peptides in 1/100 strength BHSS (10 mm
sodium phosphate, pH 7.0, 10 mM NaCl.

Assay [3] has as its system S. aureus strain 8325-4. As to conditions: strain 8325-4, 500.
Another assay relates to P. aeruginosa. In words: Bactericidal capacity of cathepsin G in 1% TSB, P. aeruginosa. In kind it is cell-based, Pseudomonas aeruginosa. As to conditions: Table 11, 50 μg/ml, 2 h at 37° C.
A further assay deals with S. aureus. In kind it is cell-based, Staphylococcus aureus. To be noted: Table 11; 50 μg/ml; 1% TSB, 2 h at 37° C.
Assay [4] deals with N. gonorrhoeae strain FA 102.

In the case of `CC[C@H](C)[C@H](N)C(=O)N[C@H](C(=O)NCC(=O)NCC(=O)N[C@@H](CCCNC(=N)N)C(=O)O)C(C)C` [IVGGR] (H-IVGGR-OH), the ED50 with S. aureus strain 8325-4 [1] is > 875 µM.

As to H^Benzyl PQYNQR, the “% Survival of S. aureus” value in the assay with S. aureus strain 8325-4 [1] was 99.0%.

With H^1m QYNQR, in the assay on S. aureus strain 8325-4 [1], the “% Survival of S. aureus” value is listed as 37.3%.

As for H^Dnp PQYNQR, the “% Survival of S. aureus” value with S. aureus strain 8325-4 [1] was found to be 102.2%.

With `CC[C@H](C)[C@H](N)C(=O)N[C@H](C(=O)NCC(=O)NCC(=O)N[C@@H](CCCNC(=N)N)C(=O)O)[C@@H](C)CC` [IIGGR] (H-IIGGR-OH), the ED50 with S. aureus strain 8325-4 [1] was determined as 430 µM.

With `CC[C@H](C)[C@H](NC(=O)[C@H](Cc1c[nH]c2ccccc12)NC(=O)[C@@H]1CCCN1C(=O)[C@H](CC(C)C)NC(=O)[C@H](Cc1ccccc1)NC(=O)[C@H](CO)NC(=O)[C@H](CO)NC(=O)[C@@H](NC(=O)[C@H](Cc1ccccc1)NC(=O)[C@H](CCCNC(=N)N)NC(=O)[C@@H](NC(=O)[C@H](Cc1ccccc1)NC(=O)[C@@H](NC(=O)[C@H](CCC(=O)O)NC(=O)[C@@H]1CCCN1C(=O)[C@@H]1CCCN1C(=O)[C@@H](NC(=O)CNC(=O)[C@H](CO)NC(=O)[C@H](CO)NC(=O)[C@H](CCCCN)NC(=O)CN)C(C)C)C(C)C)[C@@H](C)O)C(C)C)C(=O)N[C@@H](CCCNC(=N)N)C(=O)N[C@H](C(=O)N[C@H](C(=O)N[C@@H](CCSC)C(=O)N[C@@H](CCCNC(=N)N)C(=O)O)[C@@H](C)O)[C@@H](C)O` [CG 198-223] (H-GKSSGVPPEVFTRFVSSFLPWIRTTMR-OH; N-terminus and C-terminus assumed), in the assay with P. aeruginosa ATCC 27853, the “Log Kill (500 μg/ml) P. aeruginosa ATCC 278533” value was 5.73 log. In addition, in assay [2], the “killing of P. aeruginosa clinical strains (in words)” value was “some variability in effectiveness”. Also, in the assay on S. aureus strain 8325-4 [3], the “Log Kill (500 μg/ml) S. aureus strain 8325-4” value turned out to be 0.26 log.

As for H^3m PQYNQR, in the assay with S. aureus strain 8325-4 [1], the “% Survival of S. aureus” value is 18.3%.

“enzymatically active Cat G: cathepsin G purified from extracts of human PMN granules”: the “Log Reduction in CFU/ml P. aeruginosa” value in the assay with P. aeruginosa is 2.41 log. Further, in the assay on S. aureus strain 8325-4 [1] (HBSS, optimal conditions), the “ED50 for S. aureus” value was 4 µM. Moreover, the “Log Reduction in CFU/ml S. aureus” value in the assay on S. aureus is reported as 2.82 log.

Regarding `N=C(N)NCCC[C@H](NC(=O)[C@H](CCC(N)=O)NC(=O)[C@H](CC(N)=O)NC(=O)[C@H](Cc1ccc(O)cc1)NC(=O)[C@H](CCC(N)=O)NC(=O)[C@@H]1CCCN1C(=O)[C@@H](N)Cc1c[nH]cn1)C(=O)O` [HPQYNQR] (H-HPQYNQR-OH), the “ED50 for N. gonorrhoeae” value in assay [4] is 50 µM.

In the case of `O=C(N[C@H](CO)[C@H](O)c1ccc([N+](=O)[O-])cc1)C(Cl)Cl` [Chloramphenicol, reference compound], the “bactericidal capacity compared with antibiotics and defensin pool (in words)” value in assay [4] (N. gonorrhoeae strain FA 102, each compound 5.0×10^-4 M, 30 min at 37° C., FIG. 5) is on record as “more effective at this concentration than the defensin pool or the test peptides”.
